Measurements from US20040142952A1, “Triazoloquinazoline and pyrazolotriazolopyrimidine derivatives, medicinal compositions, adenosine a3 receptor affinity agents, ocular tension lowering agents, preparations for preventing and treating glaucoma and method of lowering ocular tension” (priority 2001, published 2004).

| melting point | SMILES |
| --- | --- |
| 105.5 to 106 °C | CCCCc1nc2c(cnn2CCC)c2nc(-c3ccc(F)cc3)nn12 [Example 124, 5-n-butyl-2-(4-fluorophenyl)-7-n-propylpyrazolo[4,3-e]-1,2,4-triazolo[1,5-c]pyrimidine] |
| 106.5 to 107.5 °C | CCCCc1nc2nn(CCC)cc2c2nc(-c3ccc(F)cc3)nn12 [Example 125, 5-n-butyl-2-(4-fluorophenyl)-8-n-propylpyrazolo[4,3-e]-1,2,4-triazolo[1,5-c]pyrimidine] |
| 131.5 to 132 °C | CCCCc1nc2c(cnn2CCC)c2nc(-c3ccc(Cl)cc3)nn12 [Example 126, 5-n-butyl-2-(4-chlorophenyl)-7-n-propylpyrazolo[4,3-e]-1,2,4-triazolo[1,5-c]pyrimidine] |
| 137 to 138 °C | CCCCc1nc2nn(CCC)cc2c2nc(-c3ccc(Cl)cc3)nn12 [Example 127, 5-n-butyl-2-(4-chlorophenyl)-8-n-propylpyrazolo[4,3-e]-1,2,4-triazolo[1,5-c]pyrimidine] |
| 131.5 to 132.5 °C | CCCCc1nc2c(cnn2CC(=O)OCC)c2nc(-c3ccccc3)nn12 [Example 128, ethyl 2-(5-n-butyl-2-phenylpyrazolo[4,3-e]-1,2,4-triazolo[1,5-c]pyrimidin-7-yl)acetate] |
| 136 to 137 °C | CCCCc1nc2nn(CC(=O)OCC)cc2c2nc(-c3ccccc3)nn12 [Example 129, ethyl 2-(5-n-butyl-2-phenylpyrazolo[4,3-e]-1,2,4-triazolo[1,5-c]pyrimidin-8-yl)acetate] |
| 139.5 to 140.5 °C | CCCCc1nc2c(cnn2CC(=O)OCC)c2nc(-c3ccc(F)cc3)nn12 [Example 130, ethyl 2-[5-n-butyl-2-(4-fluorophenyl)pyrazolo[4,3-e]-1,2,4-triazolo[1,5-c]pyrimidin-7-yl]acetate] |
| 164 to 165 °C | CCCCc1nc2nn(CC(=O)OCC)cc2c2nc(-c3ccc(F)cc3)nn12 [Example 131, ethyl 2-[5-n-butyl-2-(4-fluorophenyl)pyrazolo[4,3-e]-1,2,4-triazolo[1,5-c]pyrimidin-8-yl]acetate] |
| 132 to 133 °C | CCCCc1nc2c(cnn2CCO)c2nc(-c3ccccc3)nn12 [Example 132, 5-n-butyl-7-(2-hydroxyethyl)-2-phenylpyrazolo[4,3-e]-1,2,4-triazolo[1,5-c]pyrimidine] |
| 160.5 to 162 °C | CCCCc1nc2nn(CCO)cc2c2nc(-c3ccccc3)nn12 [Example 133, 5-n-butyl-8-(2-hydroxyethyl)-2-phenylpyrazolo[4,3-e]-1,2,4-triazolo[1,5-c]pyrimidine] |
| 150.5 to 151.5 °C | CCCCc1nc2c(cnn2CCO)c2nc(-c3ccc(F)cc3)nn12 [Example 134, 5-n-butyl-2-(4-fluorophenyl)-7-(2-hydroxyethyl)pyrazolo[4,3-e]-1,2,4-triazolo[1,5-c]pyrimidine] |
| 202 to 203 °C | CCCCc1nc2nn(CCO)cc2c2nc(-c3ccc(F)cc3)nn12 [Example 135, 5-n-butyl-2-(4-fluorophenyl)-8-(2-hydroxyethyl)pyrazolo[4,3-e]-1,2,4-triazolo[1,5-c]pyrimidine] |
| 134 to 136 °C | CCCCc1nc2c(cnn2CCO)c2nc(-c3ccc(C)cc3)nn12 [Example 136, 5-n-butyl-7-(2-hydroxyethyl)-2-(4-methylphenyl)pyrazolo[4,3-e]-1,2,4-triazolo[1,5-c]pyrimidine] |
| 171 to 173 °C | CCCCc1nc2nn(CCO)cc2c2nc(-c3ccc(C)cc3)nn12 [Example 137, 5-n-butyl-8-(2-hydroxyethyl)-2-(4-methylphenyl)pyrazolo[4,3-e]-1,2,4-triazolo[1,5-c]pyrimidine] |
| 164 to 164.5 °C | CCCCc1nc2c(cnn2CCO)c2nc(-c3ccc(Cl)cc3)nn12 [Example 138, 5-n-butyl-2-(4-chlorophenyl)-7-(2-hydroxyethyl)pyrazolo[4,3-e]-1,2,4-triazolo[1,5-c]pyrimidine] |
| 189 to 190.5 °C | CCCCc1nc2nn(CCO)cc2c2nc(-c3ccc(Cl)cc3)nn12 [Example 139, 5-n-butyl-2-(4-chlorophenyl)-8-(2-hydroxyethyl)pyrazolo[4,3-e]-1,2,4-triazolo[1,5-c]pyrimidine] |
| 147.5 to 148.5 °C | CCCCc1nc2c(cnn2CCO)c2nc(-c3ccc(OC)cc3)nn12 [Example 140, 5-n-butyl-7-(2-hydroxyethyl)-2-(4-methoxyphenyl)pyrazolo[4,3-e]-1,2,4-triazolo[1,5-c]pyrimidine] |

| melting point | SMILES |
| --- | --- |
| 178 to 179 °C | CCCCc1nc2nn(CCO)cc2c2nc(-c3ccc(OC)cc3)nn12 [Example 141, 5-n-butyl-8-(2-hydroxyethyl)-2-(4-methoxyphenyl)pyrazolo[4,3-e]-1,2,4-triazolo[1,5-c]pyrimidine] |
| 127 to 128 °C | CCCCc1nc2nn(CC)cc2c2nc(-c3ccc(OC)cc3)nn12 [Example 142, 5-n-butyl-8-ethyl-2-(4-methoxyphenyl)pyrazolo[4,3-e]-1,2,4-triazolo[1,5-c]pyrimidine] |
| 128 to 129 °C | CCCCc1nc2nn(CC)cc2c2nc(-c3ccc(C)cc3)nn12 [Example 143, 5-n-butyl-8-ethyl-2-(4-methylphenyl)pyrazolo[4,3-e]-1,2,4-triazolo[1,5-c]pyrimidine] |
| 146 to 147 °C | CCCCc1nc2nn(CC)cc2c2nc(-c3ccc(F)cc3)nn12 [Example 144, 5-n-butyl-8-ethyl-2-(4-fluorophenyl)pyrazolo[4,3-e]-1,2,4-triazolo[1,5-c]pyrimidine] |
| 141 to 142 °C | CCCCc1nc2nn(CC)cc2c2nc(-c3ccc(Cl)cc3)nn12 [Example 145, 5-n-butyl-2-(4-chlorophenyl)-8-ethylpyrazolo[4,3-e]-1,2,4-triazolo[1,5-c]pyrimidine] |
| 112 to 112.5 °C | CCCCc1nc2nn(CCC)cc2c2nc(-c3ccc(OC)cc3)nn12 [Example 146, 5-n-butyl-2-(4-methoxyphenyl)-8-n-propylpyrazolo[4,3-e]-1,2,4-triazolo[1,5-c]pyrimidine] |
| 247.5 to 249 °C | COc1ccc(-c2nc3c4cnnc-4nc(CCCC(=O)O)n3[nH]2)cc1 [Example 148, 4-[2-(4-methoxyphenyl)pyrazolo[4,3-e]-1,2,4-triazolo[1,5-c]pyrimidin-5-yl]butyric acid] |
| 253.5 to 255.5 °C | O=C(O)CCCc1nc2nncc-2c2nc(-c3ccc(Cl)cc3)[nH]n12 [Example 149, 4-[2-(4-chlorophenyl)pyrazolo[4,3-e]-1,2,4-triazolo[1,5-c]pyrimidin-5-yl]butyric acid] |
| 249 to 251 °C | Cc1ccc(-c2nc3c4cnnc-4nc(CCCC(=O)O)n3[nH]2)cc1 [Example 150, 4-[2-(4-methylphenyl)pyrazolo[4,3-e]-1,2,4-triazolo[1,5-c]pyrimidin-5-yl]butyric acid] |
| 271 to 272.5 °C | CCCCc1nc2c(cnn2CC(=O)O)c2nc(-c3ccccc3)nn12 [Example 151, 2-(5-n-butyl-2-phenylpyrazolo[4,3-e]-1,2,4-triazolo[1,5-c]pyrimidin-7-yl)acetic acid] |
| > 281 °C (dec.) | CCCCc1nc2nn(CC(=O)O)cc2c2nc(-c3ccccc3)nn12 [Example 152, 2-(5-n-butyl-2-phenylpyrazolo[4,3-e]-1,2,4-triazolo[1,5-c]pyrimidin-8-yl)acetic acid] |
| 211 to 211.5 °C | O=C(O)CCCc1nc2ccccc2c2nc(-c3ccccc3)nn12 [Example 153, 4-(2-phenyl-1,2,4-triazolo[1,5-c]quinazolin-5-yl)butyric acid] |
| 219 to 220 °C | O=C(O)CCCc1nc2ccccc2c2nc(-c3ccc(Br)cc3)nn12 [Example 154, 4-[2-(4-bromophenyl)-1,2,4-triazolo[1,5-c]quinazolin-5-yl]butyric acid] |
| 225 to 226 °C | O=C(O)CCCc1nc2ccccc2c2nc(-c3ccc(F)cc3)nn12 [Example 155, 4-[2-(4-fluorophenyl)-1,2,4-triazolo[1,5-c]quinazolin-5-yl]butyric acid] |
| 227 to 228 °C | O=C(O)CCCc1nc2ccccc2c2nc(-c3ccc(Cl)cc3)nn12 [Example 156, 4-[2-(4-chlorophenyl)-1,2,4-triazolo[1,5-c]quinazolin-5-yl]butyric acid] |
| 214 to 215 °C | CCCCCc1nc2ccccc2c2nc(-c3ccc(O)cc3)nn12 [Example 157, 2-(4-hydroxyphenyl)-5-n-pentyl-1,2,4-triazolo[1,5-c]quinazoline] |
